# Data from PubChem BioAssay (NCI).
#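 Following 48 hours of exposure in 96-well plates, responses at five concentrations were used to interpolate endpoints linearly. At the GI50, growth is halved. Definition used: TGI = concentration required for complete inhibition of growth.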
# Experiments:
# Assay in all cases: NCI tumour cell line growth inhibition, 48 h
# 786-0 renal = test system: 786-0 renal
# A498 renal = test system: A498 renal
# A549 NSCLC = test system: A549 NSCLC
# ACHN renal = test system: ACHN renal
# BT-549 breast = test system: BT-549 breast
# CAKI-1 renal = test system: CAKI-1 renal
# CCRF-CEM leukemia = test system: CCRF-CEM leukemia
# COLO 205 colon = test system: COLO 205 colon
# DU-145 prostate = test system: DU-145 prostate
# EKVX NSCLC = test system: EKVX NSCLC
# HCC-2998 colon = test system: HCC-2998 colon
# HCT-116 colon = test system: HCT-116 colon
# HCT-15 colon = test system: HCT-15 colon
# HL-60(TB) leukemia = test system: HL-60(TB) leukemia
# HOP-62 NSCLC = test system: HOP-62 NSCLC
# HOP-92 NSCLC = test system: HOP-92 NSCLC
# HS 578T breast = test system: HS 578T breast
# HT29 colon = test system: HT29 colon
# IGROV1 ovarian = test system: IGROV1 ovarian
# K-562 leukemia = test system: K-562 leukemia
# KM12 colon = test system: KM12 colon
# LOX IMVI melanoma = test system: LOX IMVI melanoma
# M14 melanoma = test system: M14 melanoma
# MALME-3M melanoma = test system: MALME-3M melanoma
# MCF7 breast = test system: MCF7 breast
# MDA-MB-231 breast = test system: MDA-MB-231 breast
# MDA-MB-435 = test system: MDA-MB-435
# MOLT-4 leukemia = test system: MOLT-4 leukemia
# NCI-H226 lung = test system: NCI-H226 lung
# NCI-H23 lung = test system: NCI-H23 lung
# NCI-H460 lung = test system: NCI-H460 lung
# NCI-H522 lung = test system: NCI-H522 lung
# NCI/ADR-RES ovarian = test system: NCI/ADR-RES ovarian
# OVCAR-3 ovarian = test system: OVCAR-3 ovarian
# OVCAR-4 ovarian = test system: OVCAR-4 ovarian
# OVCAR-5 ovarian = test system: OVCAR-5 ovarian
# OVCAR-8 ovarian = test system: OVCAR-8 ovarian
# PC-3 prostate = test system: PC-3 prostate
# RPMI-8226 leukemia = test system: RPMI-8226 leukemia
# RXF 393 renal = test system: RXF 393 renal
# SF-268 CNS = test system: SF-268 CNS
# SF-295 CNS = test system: SF-295 CNS
# SF-539 CNS = test system: SF-539 CNS
# SK-MEL-2 melanoma = test system: SK-MEL-2 melanoma
# SK-MEL-28 melanoma = test system: SK-MEL-28 melanoma
# SK-MEL-5 melanoma = test system: SK-MEL-5 melanoma
# SK-OV-3 ovarian = test system: SK-OV-3 ovarian
# SN12C renal = test system: SN12C renal
# SNB-19 CNS = test system: SNB-19 CNS
# SNB-75 CNS = test system: SNB-75 CNS
# SR leukemia = test system: SR leukemia
# SW-620 colon = test system: SW-620 colon
# T-47D breast = test system: T-47D breast
# TK-10 renal = test system: TK-10 renal
# U251 CNS = test system: U251 CNS
# UACC-257 melanoma = test system: UACC-257 melanoma
# UACC-62 melanoma = test system: UACC-62 melanoma
# UO-31 renal = test system: UO-31 renal
smiles,measurement,setting,value
N=c1ccn2c(n1)O[C@@H]1[C@@H](O)[C@H](CO)O[C@@H]12,GI50,786-0 renal,2.46 µM
same,TGI,786-0 renal,50.3 µM
same,GI50,A498 renal,> 100 µM
same,TGI,A498 renal,> 100 µM
same,GI50,A549 NSCLC,0.41 µM
same,TGI,A549 NSCLC,> 100 µM
same,GI50,ACHN renal,1.45 µM
same,TGI,ACHN renal,> 100 µM
same,GI50,BT-549 breast,41.3 µM
same,TGI,BT-549 breast,> 100 µM
same,TGI,CAKI-1 renal,> 100 µM
same,GI50,CCRF-CEM leukemia,0.0773 µM
same,TGI,CCRF-CEM leukemia,> 100 µM
same,GI50,COLO 205 colon,2.41 µM
same,TGI,COLO 205 colon,> 100 µM
same,GI50,DU-145 prostate,2.42 µM
same,TGI,DU-145 prostate,> 100 µM
same,GI50,EKVX NSCLC,> 100 µM
same,TGI,EKVX NSCLC,> 100 µM
same,GI50,HCC-2998 colon,21.2 µM
same,TGI,HCC-2998 colon,> 100 µM
same,GI50,HCT-116 colon,0.519 µM
same,TGI,HCT-116 colon,> 100 µM
same,GI50,HCT-15 colon,11.4 µM
same,TGI,HCT-15 colon,> 100 µM
same,GI50,HL-60(TB) leukemia,8.41 µM
same,TGI,HL-60(TB) leukemia,> 100 µM
same,GI50,HOP-62 NSCLC,0.783 µM
same,TGI,HOP-62 NSCLC,23 µM
same,GI50,HOP-92 NSCLC,9.94 µM
same,TGI,HOP-92 NSCLC,> 100 µM
same,GI50,HS 578T breast,> 100 µM
same,TGI,HS 578T breast,> 100 µM
same,GI50,HT29 colon,17 µM
same,TGI,HT29 colon,> 100 µM
same,GI50,IGROV1 ovarian,11 µM
same,TGI,IGROV1 ovarian,> 100 µM
same,GI50,K-562 leukemia,> 100 µM
same,TGI,K-562 leukemia,> 100 µM
same,GI50,KM12 colon,27.3 µM
same,TGI,KM12 colon,> 100 µM
same,GI50,LOX IMVI melanoma,6.97 µM
same,TGI,LOX IMVI melanoma,> 100 µM
same,GI50,M14 melanoma,0.428 µM
same,TGI,M14 melanoma,3.39 µM
same,GI50,MALME-3M melanoma,2.57 µM
same,TGI,MALME-3M melanoma,> 100 µM
same,GI50,MCF7 breast,0.234 µM
same,TGI,MCF7 breast,> 100 µM
same,GI50,MDA-MB-231 breast,> 100 µM
same,TGI,MDA-MB-231 breast,> 100 µM
same,GI50,MDA-MB-435,4.13 µM
same,TGI,MDA-MB-435,> 100 µM
same,GI50,MOLT-4 leukemia,0.161 µM
same,TGI,MOLT-4 leukemia,> 100 µM
same,GI50,NCI-H226 lung,3.52 µM
same,TGI,NCI-H226 lung,> 100 µM
same,GI50,NCI-H23 lung,1.09 µM
same,TGI,NCI-H23 lung,> 100 µM
same,GI50,NCI-H460 lung,0.446 µM
same,TGI,NCI-H460 lung,> 100 µM
same,GI50,NCI-H522 lung,0.294 µM
same,TGI,NCI-H522 lung,> 100 µM
same,GI50,NCI/ADR-RES ovarian,2.08 µM
same,TGI,NCI/ADR-RES ovarian,> 100 µM
same,TGI,OVCAR-3 ovarian,> 100 µM
same,GI50,OVCAR-4 ovarian,10.4 µM
same,TGI,OVCAR-4 ovarian,> 100 µM
same,GI50,OVCAR-5 ovarian,49.3 µM
same,TGI,OVCAR-5 ovarian,> 100 µM
same,TGI,OVCAR-8 ovarian,> 100 µM
same,GI50,PC-3 prostate,7.57 µM
same,TGI,PC-3 prostate,> 100 µM
same,GI50,RPMI-8226 leukemia,> 100 µM
same,TGI,RPMI-8226 leukemia,> 100 µM
same,GI50,RXF 393 renal,18.1 µM
same,TGI,RXF 393 renal,> 100 µM
same,GI50,SF-268 CNS,4.8 µM
same,TGI,SF-268 CNS,> 100 µM
same,GI50,SF-295 CNS,16.2 µM
same,TGI,SF-295 CNS,> 100 µM
same,GI50,SF-539 CNS,63.9 µM
same,TGI,SF-539 CNS,> 100 µM
same,GI50,SK-MEL-2 melanoma,15.8 µM
same,TGI,SK-MEL-2 melanoma,> 100 µM
same,GI50,SK-MEL-28 melanoma,4.89 µM
same,TGI,SK-MEL-28 melanoma,> 100 µM
same,GI50,SK-MEL-5 melanoma,15.5 µM
same,TGI,SK-MEL-5 melanoma,> 100 µM
same,GI50,SK-OV-3 ovarian,2.85 µM
same,TGI,SK-OV-3 ovarian,> 100 µM
same,GI50,SN12C renal,2.86 µM
same,TGI,SN12C renal,> 100 µM
same,GI50,SNB-19 CNS,1.44 µM
same,TGI,SNB-19 CNS,> 100 µM
same,GI50,SNB-75 CNS,1.58 µM
same,TGI,SNB-75 CNS,47.6 µM
same,GI50,SR leukemia,0.962 µM
same,TGI,SR leukemia,21 µM
same,GI50,SW-620 colon,4.59 µM
same,TGI,SW-620 colon,> 100 µM
same,GI50,T-47D breast,8.96 µM
same,TGI,T-47D breast,> 100 µM
same,GI50,TK-10 renal,> 100 µM
same,TGI,TK-10 renal,> 100 µM
same,GI50,U251 CNS,6.89 µM
same,TGI,U251 CNS,> 100 µM
same,GI50,UACC-257 melanoma,35 µM
same,TGI,UACC-257 melanoma,> 100 µM
same,GI50,UACC-62 melanoma,4.93 µM
same,TGI,UACC-62 melanoma,> 100 µM
same,GI50,UO-31 renal,1.31 µM
same,TGI,UO-31 renal,20.8 µM
